The structures appear in SMILES notation. pIC50: −log10 of the molar value.

The target of the first experiment is T1, human MGL from HeLa cells (Homo sapiens, UniProt Q99685).
T1 construct: combining endogenously expressed MGL from HeLa cells with test compounds; endogenous in cells; host or cells: HeLa cells / cell homogenates
T1 sequence (Q99685 1-303): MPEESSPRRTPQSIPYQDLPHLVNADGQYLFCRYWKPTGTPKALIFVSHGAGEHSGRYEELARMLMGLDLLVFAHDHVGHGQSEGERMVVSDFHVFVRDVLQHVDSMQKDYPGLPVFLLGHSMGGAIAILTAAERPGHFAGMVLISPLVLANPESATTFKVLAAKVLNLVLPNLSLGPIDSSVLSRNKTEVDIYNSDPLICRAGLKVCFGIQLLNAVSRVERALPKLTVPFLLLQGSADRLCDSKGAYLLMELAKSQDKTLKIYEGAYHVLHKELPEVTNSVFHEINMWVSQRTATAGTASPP
The experiment in a line: In vitro MGL activity assay: [glycerol-1,3-3H]-oleyl glycerol cleavage by MGL from HeLa cells. In kind it is biochemical. The note with it: 300 nM [Glycerol-1,3-3H]-oleyl glycerol, one hour. The source says: MGL is the predominant hydrolase in HeLa cells/cell homogenates.
What is called pIC50 is the IC50 on a negative log10 scale, so that one unit is a factor of ten. A high value points to a small IC50. In turn, `Cc1cnn2c(C(=O)N3CCc4c(nn(C)c4-c4cc(F)c(F)c(F)c4)[C@@H]3C)c(C)nc2c1` [Example 457, (2,7-Dimethylimidazo[1,2-b]pyridazin-3-yl)-[(7S)-2,7-dimethyl-3-(3,4,5-trifluorophenyl)-5,7-dihydro-4H-pyrazolo[3,4-c]pyridin-6-yl] methanone] gave a pIC50 of 7.40.
Same read-out and setting: next, `C[C@H]1c2nn(C)c(-c3cc(F)c(F)c(F)c3)c2CCN1C(=O)c1c(C(F)(F)F)cnc2[nH]ccc12` [Example 371, [(7S)-2,7-Dimethyl-3-(3,4,5-trifluorophenyl)-5,7-dihydro-4H-pyrazolo[3,4-c]pyridin-6-yl]-[5-(trifluoromethyl)-1H-pyrrolo[2,3-b]pyridin-4-yl] methanone]: 6.87; `C[C@H]1c2nn(C)c(-c3cc(F)c(F)c(F)c3)c2CCN1C(=O)c1cccc2c1OCCN2` [Example 592, 3,4-Dihydro-2H-1,4-benzoxazin-8-yl-[(7S)-2,7-dimethyl-3-(3,4,5-trifluorophenyl)-5,7-dihydro-4H-pyrazolo[3,4-c]pyridin-6-yl]methanone]: 8.14.
Still for that read-out and setting: next, `C[C@H]1c2nn(C)c(-c3cccc4c3OC(F)(F)O4)c2CCN1C(=O)c1ccc2ncccc2c1` [Example 542, [(7S)-3-(2,2-Difluoro-1,3-benzodioxol-4-yl)-2,7-dimethyl-5,7-dihydro-4H-pyrazolo[3,4-c]pyridin-6-yl]-(6-quinolyl)methanone]: 7.09; `C[C@H]1c2nn(C)c(-c3cc(F)c(F)c(F)c3)c2CCN1C(=O)c1ncnc2c1cnn2C` [Example 471, [(7S)-2,7-Dimethyl-3-(3,4,5-trifluorophenyl)-5,7-dihydro-4H-pyrazolo[3,4-c]pyridin-6-yl]-(1-methylpyrazolo[3,4-d]pyrimidin-4-yl)methanone]: 7.49.
Compound `COc1ccnc(C(=O)N2CCc3c(nn(C)c3-c3cc(F)cc(C(F)F)c3)[C@@H]2C)c1Cl` [Example 608, (3-Chloro-4-methoxy-2-pyridyl)-[(7S)-3-[3-(difluoromethyl)-5-fluoro-phenyl]-2,7-dimethyl-5,7-dihydro-4H-pyrazolo[3,4-c]pyridin-6-yl]methanone] had a pIC50 of 7.66.
The same measure, in the same setting: the value for `Cc1ccn2c(C(=O)N3CCc4c(nn(C)c4-c4cc(F)c(F)c(F)c4)[C@@H]3C)c(C)nc2c1` [Example 404, (2,7-Dimethylimidazo[1,2-a]pyridin-3-yl)-[(7S)-2,7-dimethyl-3-(3,4,5-trifluorophenyl)-5,7-dihydro-4H-pyrazolo[3,4-c]pyridin-6-yl]methanone] was 7.30; that for `C[C@H]1c2nn(C)c(-c3cc(F)c(F)c(F)c3)c2CCN1C(=O)c1ccc2c(ccc[n+]2[O-])c1` [Example 516, [(7S)-2,7-Dimethyl-3-(3,4,5-trifluorophenyl)-5,7-dihydro-4H-pyrazolo[3,4-c]pyridin-6-yl]-(1-oxidoquinolin-1-ium-6-yl)methanone] was 6.85.
On the same count and under the same terms, next, `Cc1cccc2c(C(=O)N3CCc4c(nn(C)c4-c4cc(F)c(F)c(F)c4)[C@@H]3C)c(C3CC3)nn12` [Example 385, (2-Cyclopropyl-7-methyl-pyrazolo[1,5-a]pyridin-3-yl)-[(7S)-2,7-dimethyl-3-(3,4,5-trifluorophenyl)-5,7-dihydro-4H-pyrazolo[3,4-c]pyridin-6-yl]methanone]: 6.92.

Staying with this experiment, now noted: 300 nM [Glycerol-1,3-3H]-oleyl glycerol, one hour incubation.
Compound `C[C@H]1c2nn(C)c(-c3cc(F)c(F)c(F)c3)c2CCN1C(=O)c1ncn(-c2ccccn2)n1` [Example 323, [(7S)-2,7-Dimethyl-3-(3,4,5-trifluorophenyl)-5,7-dihydro-4H-pyrazolo[3,4-c]pyridin-6-yl]-[1-(2-pyridyl)-1,2,4-triazol-3-yl]methanone] showed a pIC50 of 7.18.
`Cc1nc2ccc(C(=O)N3CCc4c(nn(C)c4-c4cccc(Cl)c4)[C@@H]3C)cc2o1` [Example 125, (S)-(3-(3-Chlorophenyl)-2,7-dimethyl-2,4,5,7-tetrahydro-6H-pyrazolo[3,4-c]pyridin-6-yl)(2-methylbenzo[d]oxazol-6-yl)methanone] had a pIC50 of 8.02.
On the same count and under the same terms, next, `C[C@H]1c2nn(C)c(-c3cc(F)c(F)c(F)c3)c2CCN1C(=O)c1noc2ccccc12` [Example 215, (S)-Benzo[d]isoxazol-3-yl(2,7-dimethyl-3-(3,4,5-trifluorophenyl)-2,4,5,7-tetrahydro-6H-pyrazolo[3,4-c]pyridin-6-yl)methanone]: 8.50.
As to `COc1ccc(-c2c3c(nn2C)[C@H](C)N(C(=O)c2ccc4nccnc4c2)CC3)cc1Cl` [Example 188, (S)-(3-(3-Chloro-4-methoxyphenyl)-2,7-dimethyl-2,4,5,7-tetrahydro-6H-pyrazolo[3,4-c]pyridin-6-yl)(quinoxalin-6-yl)methanone], the pIC50 was 6.98.
Same read-out and setting: next, `Cn1nc2c(c1-c1ccccc1)CCN(C(=O)c1nsc3ccccc13)C2` [Example 63, Benzo[d]isothiazol-3-yl(2-methyl-3-phenyl-2,4,5,7-tetrahydro-6H-pyrazolo[3,4-c]pyridin-6-yl)methanone]: 7.31; `C[C@H]1c2nn(-c3ccccc3)c(-c3ccccc3)c2CCN1C(=O)c1ccc2ncccc2c1` (single isomer, unassigned) [Example 115]: 7.35.
In turn, `C[C@H]1c2nn(C)c(-c3cc(F)cc(C(F)(F)F)c3)c2CCN1C(=O)c1ccc2nccnc2c1` [Example 184, (S)-(3-(3-Fluoro-5-(trifluoromethyl)phenyl)-2,7-dimethyl-2,4,5,7-tetrahydro-6H-pyrazolo[3,4-c]pyridin-6-yl)(quinoxalin-6-yl)methanone] had a pIC50 of 6.87.
The same measure, in the same setting: the value for `Cn1nc2c(c1-c1ccccc1)CCN(C(=O)c1cccc3c1OCO3)C2` [Example 28, Benzo[d][1,3]dioxol-4-yl(2-methyl-3-phenyl-2,4,5,7-tetrahydro-6H-pyrazolo[3,4-c]pyridin-6-yl)methanone] was 5.40; that for `COc1cccnc1C(=O)N1CCc2c(nn(C)c2-c2cc(F)c(F)c(F)c2)[C@@H]1C` [Example 303, [(7S)-2,7-Dimethyl-3-(3,4,5-trifluorophenyl)-5,7-dihydro-4H-pyrazolo[3,4-c]pyridin-6-yl]-(3-methoxy-2-pyridyl)methanone] was 6.95.
Same read-out and setting: the value for `COc1cncc(C(=O)N2CCc3c(nn(C)c3-c3cc(F)c(F)c(F)c3)[C@@H]2C)c1C` [Example 313, [(7S)-2,7-Dimethyl-3-(3,4,5-trifluorophenyl)-5,7-dihydro-4H-pyrazolo[3,4-c]pyridin-6-yl]-(5-methoxy-4-methyl-3-pyridyl)methanone] was 7.42; that for `Cn1nc2c(c1-c1ccccc1)CCN(C(=O)c1sc3ccccc3c1Cl)C2` [Example 41, (3-Chlorobenzo[b]thiophen-2-yl)(2-methyl-3-phenyl-2,4,5,7-tetrahydro-6H-pyrazolo[3,4-c]pyridin-6-yl)methanone] was 7.19; that for `C[C@@H]1c2nn(C)c(-c3ccccc3)c2CCN1C(=O)c1ccc2ncccc2c1` (single isomer, unassigned) [Example 111] was 5.08.
The same measure, in the same setting: the value for `C[C@H]1c2nn(C)c(-c3cc(F)c(F)c(F)c3)c2CCN1C(=O)c1cccc(F)c1-n1nccn1` [Example 195, (S)-(2,7-Dimethyl-3-(3,4,5-trifluorophenyl)-2,4,5,7-tetrahydro-6H-pyrazolo[3,4-c]pyridin-6-yl)(3-fluoro-2-(2H-1,2,3-triazol-2-yl)phenyl)methanone] was 6.51; that for `Cn1nc2c(c1-c1ccccc1)CCN(C(=O)c1ccc3[nH]ccc3c1)C2` [Example 43, (1H-Indol-5-yl)(2-methyl-3-phenyl-2,4,5,7-tetrahydro-6H-pyrazolo[3,4-c]pyridin-6-yl)methanone] was 7.19; that for `C[C@H]1c2nn(C)c(-c3cc(F)c(F)c(F)c3)c2CCN1C(=O)c1cccc2ccn(C)c12` [Example 206, (S)-(2,7-Dimethyl-3-(3,4,5-trifluorophenyl)-2,4,5,7-tetrahydro-6H-pyrazolo[3,4-c]pyridin-6-yl)(1-methyl-1H-indol-7-yl)methanone] was 8.31.
Turning to `C[C@H]1c2nn(C)c(-c3ccccc3)c2CCN1C(=O)c1ccc2ncccc2c1` (single isomer, unassigned) [Example 112], the pIC50 was 8.16.
On to `Cn1nc2c(c1-c1ccccc1)CCN(C(=O)c1cccc3ccnn13)C2` [Example 75, (2-Methyl-3-phenyl-2,4,5,7-tetrahydro-6H-pyrazolo[3,4-c]pyridin-6-yl)(pyrazolo[1,5-a]pyridin-7-yl)methanone], for which the pIC50 is 5.74.
Still for that read-out and setting: the value for `Cn1nc2c(c1-c1ccccc1)CCN(C(=O)c1nn(C)c3ccccc13)C2` [Example 70, (1-Methyl-1H-indazol-3-yl)(2-methyl-3-phenyl-2,4,5,7-tetrahydro-6H-pyrazolo[3,4-c]pyridin-6-yl)methanone] was 6.42; that for `Cc1cc(F)cc(-c2c3c(nn2C)[C@H](C)N(C(=O)c2cnn(C)c2C)CC3)c1` [Example 327, (1,5-Dimethylpyrazol-4-yl)-[(7S)-3-(3-fluoro-5-methyl-phenyl)-2,7-dimethyl-5,7-dihydro-4H-pyrazolo[3,4-c]pyridin-6-yl]methanone] was 7.26; that for `COc1ccc(C(=O)N2CCc3c(nn(C)c3-c3cc(F)c(F)c(F)c3)[C@@H]2C)nc1` [Example 301, [(7S)-2,7-Dimethyl-3-(3,4,5-trifluorophenyl)-5,7-dihydro-4H-pyrazolo[3,4-c]pyridin-6-yl]-(5-methoxy-2-pyridyl)methanone] was 6.61.

The record behind these values is patent publication US11820766B2, “Monoacylglycerol lipase modulators” (Janssen Pharmaceutica NV, priority 2018, dated 2023).
